From PMC7031696 (Cell chemical biology, 2019)
Like-named read-outs stand apart in the source and are kept apart here.

What was measured:
[1] = test system: Plasmodium falciparum 3D7-A10 parasites; assay: Stage specificity assay (8-h exposure of synchronized stages, IC50^8h); format: cell-based; details: for IC50: Plasmodium falciparum
[2] = test system: asynchronous 3D7-A10 parasite cultures; assay: Standard 72-h exposure asexual blood stage susceptibility assay (IC50^72h); format: cell-based, Plasmodium falciparum; details: Plasmodium falciparum, 3D7, 72 h, read-out: Overall (72hr assay) Mean IC50 (IC50^72h)
[3] = test system: 3D7-MR4 trophozoite parasite-infected RBCs; assay: Metabolomic profiling (hydrophilic metabolite changes, UHPLC-MS); format: cell-based, Plasmodium falciparum
[4] = test system: 3D7-MR4 trophozoite parasite-infected RBCs; details: 10 × IC50^72h; ref Allman et al., 2016; cited from earlier work

C[C@H]1Cc2c([nH]c3cc(Cl)c(F)cc23)[C@@]2(N1)C(=O)Nc1ccc(Cl)cc12 [KAE609, reference compound]
Ratio lowest IC50 8hr/IC50 72hr ([1]; 3D7-A10): 1.5
overall activity profile (stages on which active) ([1]; 8-h exposures): inactive against rings yet active against early trophozoites and later stages
IC50 ([1]; 3D7, read-out: Early rings IC50 (IC50^8h)): > 1250 nM
IC50 ([1]; 3D7, read-out: Early trophozoites Mean IC50 (IC50^8h)): 3.2 nM
IC50 ([1]; 3D7, read-out: Late rings IC50 (IC50^8h)): > 1250 nM
IC50 ([1]; 3D7, read-out: Late trophozoites Mean IC50 (IC50^8h)): 1.1 nM
IC50 ([1]; 3D7, read-out: Schizonts Mean IC50 (IC50^8h)): 1.2 nM
IC50 [2]: 0.73 nM
Log2(fold changes) 3-phosphoglycerate ([3]; metabolite 3-phosphoglycerate, log2 fold change): 0.0100
Log2(fold changes) 4-Pyridoxic acid ([3]; metabolite 4-Pyridoxic acid, log2 fold change): -0.6000
Log2(fold changes) 4-aminobutyrate ([3]; metabolite 4-aminobutyrate, log2 fold change): -0.5400
Log2(fold changes) 4-phosphopantetheine ([3]; metabolite 4-phosphopantetheine, log2 fold change): 0.0000
Log2(fold changes) 4-phosphopantothenate ([3]; metabolite 4-phosphopantothenate, log2 fold change): -0.1500
Log2(fold changes) 5-aminopentanoic acid ([3]; metabolite 5-aminopentanoic acid, log2 fold change): 0.0000
Log2(fold changes) 5-methyl-THF ([3]; metabolite 5-methyl-THF, log2 fold change): 0.0000
Log2(fold changes) 5-phosphoribosyl-1-pyrophosphate ([3]; metabolite 5-phosphoribosyl-1-pyrophosphate, log2 fold change): -2.9800
Log2(fold changes) 6-phospho-D-gluconate ([3]; metabolite 6-phospho-D-gluconate, log2 fold change): -0.2800
Log2(fold change) HVDD ([3]; metabolite HVDD): 0.0000
Log2(fold change) Hydroxyisocaproic acid ([3]; metabolite Hydroxyisocaproic acid): 0.0000
Log2(fold change) IDP ([3]; metabolite IDP): 0.0000
Log2(fold change) IMP ([3]; metabolite IMP): 0.3800
Log2(fold change) Inositol ([3]; metabolite Inositol): 0.0000
Log2(fold change) Isopentyl-PP ([3]; metabolite Isopentyl-PP): 0.0000
Log2(fold change) L-arginino-succinate ([3]; metabolite L-arginino-succinate): 0.0000
Log2(fold change) LD ([3]; metabolite LD): -1.3200
Log2(fold change) Myristoyl/tetradecanoyl-CoA ([3]; metabolite Myristoyl/tetradecanoyl-CoA): 0.0000
Log2(fold change) N-Acetyl-L-alanine ([3]; metabolite N-Acetyl-L-alanine): -1.4200
Log2(fold change) N-acetyl-L-ornithine ([3]; metabolite N-acetyl-L-ornithine): -1.2700
Log2(fold change) N-acetyl-glucosamine-1/6-phosphate ([3]; metabolite N-acetyl-glucosamine-1/6-phosphate): -0.2300
Log2(fold change) N-acetyl-glutamate ([3]; metabolite N-acetyl-glutamate): -0.2700
Log2(fold change) N-acetyl-glutamine ([3]; metabolite N-acetyl-glutamine): -0.4300
Log2(fold change) N-carbamoyl-L-aspartate ([3]; metabolite N-carbamoyl-L-aspartate): -4.5700
Log2(fold change) NAD+ ([3]; metabolite NAD+): -0.4000
Log2(fold change) NADH ([3]; metabolite NADH): 0.0300
Log2(fold change) NADP+ ([3]; metabolite NADP+): -0.1200
Log2(fold change) NADPH ([3]; metabolite NADPH): 0.3500
Log2(fold change) O-acetyl-L-serine ([3]; metabolite O-acetyl-L-serine): 0.0000
Log2(fold change) Octoluse 8/1P ([3]; metabolite Octoluse 8/1P): -0.7200
Log2(fold change) Octoluse Bisphosphate ([3]; metabolite Octoluse Bisphosphate): -1.2000
Log2(fold change) PD ([3]; metabolite PD): -1.2400
Log2(fold change) PE ([3]; metabolite PE): -3.4900
Log2(fold change) PEE ([3]; metabolite PEE): -5.3200
Log2(fold change) PEEK ([3]; metabolite PEEK): -1.5400
Log2(fold change) PVNF ([3]; metabolite PVNF): -2.0700
Log2(fold change) Pyroglutamic acid ([3]; metabolite Pyroglutamic acid): -0.0600
Log2(fold change) Pyrophosphate ([3]; metabolite Pyrophosphate): -3.3800
Log2(fold change) Ribose-5-phosphate ([3]; metabolite Ribose-5-phosphate): 0.0000
Log2(fold change) S-adenosyl-L-homocysteine ([3]; metabolite S-adenosyl-L-homocysteine): -1.6400
Log2(fold change) S-adenosyl-L-methioninamine ([3]; metabolite S-adenosyl-L-methioninamine): 0.0000
Log2(fold change) S-adenosyl-L-methionine ([3]; metabolite S-adenosyl-L-methionine): 0.0000
Log2(fold change) S-methyl-5'-thioadenosine ([3]; metabolite S-methyl-5'-thioadenosine): -0.5300
Log2(fold change) SD ([3]; metabolite SD): -3.7000
Log2(fold change) SDL ([3]; metabolite SDL): 0.0000
Log2(fold change) SID ([3]; metabolite SID): 0.0000
Log2(fold change) Sedoheptulose bisphosphate ([3]; metabolite Sedoheptulose bisphosphate): -1.3400
Log2(fold change) Thiamine pyrophosphate ([3]; metabolite Thiamine pyrophosphate): 0.0000
Log2(fold changes) UDP-D-glucose ([3]; metabolite UDP-D-glucose, log2 fold change): -0.2000
Log2(fold changes) UDP-D-glucuronate ([3]; metabolite UDP-D-glucuronate, log2 fold change): -0.3600
Log2(fold changes) UDP-N-acetyl-glucosamine ([3]; metabolite UDP-N-acetyl-glucosamine, log2 fold change): 0.0300
Log2(fold changes) UDP ([3]; metabolite UDP, log2 fold change): -0.9600
Log2(fold changes) UMP ([3]; metabolite UMP, log2 fold change): -0.3800
Log2(fold changes) UTP ([3]; metabolite UTP, log2 fold change): -2.0500
Log2(fold change) hydroxyphenylpyruvate ([3]; metabolite hydroxyphenylpyruvate): 0.0000
Log2(fold change) hydroxyproline/Aminolevulinate ([3]; metabolite hydroxyproline/Aminolevulinate): 0.0000
Log2(fold change) hypoxanthine ([3]; metabolite hypoxanthine): 0.2700
Log2(fold change) indole ([3]; metabolite indole): 0.1700
Log2(fold change) inosine ([3]; metabolite inosine): 0.1600
Log2(fold change) isoleucine ([3]; metabolite isoleucine): 0.0000
Log2(fold change) lactate ([3]; metabolite lactate): -1.3100
Log2(fold change) leucine ([3]; metabolite leucine): 0.0000
Log2(fold change) lysine ([3]; metabolite lysine): 0.0000
Log2(fold change) malate ([3]; metabolite malate): -0.0600
Log2(fold change) maleic acid ([3]; metabolite maleic acid): 0.0000
Log2(fold change) methionine ([3]; metabolite methionine): 0.0000
Log2(fold change) myo-inositol ([3]; metabolite myo-inositol): -3.2700
Log2(fold change) nicotinamide mononucleotide ([3]; metabolite nicotinamide mononucleotide): 0.0000
Log2(fold change) nicotinate ([3]; metabolite nicotinate): 0.7800
Log2(fold change) ornithine ([3]; metabolite ornithine): -0.1500
Log2(fold change) orotate ([3]; metabolite orotate): 0.9100
Log2(fold change) orotidine-5'-phosphate ([3]; metabolite orotidine-5'-phosphate): 0.0000
Log2(fold change) oxaloacetate ([3]; metabolite oxaloacetate): 0.0000
Log2(fold change) p-aminobenzoate ([3]; metabolite p-aminobenzoate): 0.0000
Log2(fold change) p-hydroxybenzoate ([3]; metabolite p-hydroxybenzoate): 0.5800
Log2(fold change) pantothenate ([3]; metabolite pantothenate): 0.0000
Log2(fold change) phenylalanine ([3]; metabolite phenylalanine): 0.0000
Log2(fold change) phenylpyruvate ([3]; metabolite phenylpyruvate): -0.7100
Log2(fold change) phosphoenolpyruvate ([3]; metabolite phosphoenolpyruvate): 0.4500
Log2(fold change) prephenate ([3]; metabolite prephenate): 0.0000
Log2(fold change) proline ([3]; metabolite proline): 0.0000
Log2(fold change) pyridoxine ([3]; metabolite pyridoxine): 0.0000
Log2(fold change) pyruvate ([3]; metabolite pyruvate): -1.3400
Log2(fold change) riboflavin ([3]; metabolite riboflavin): 0.0000
Log2(fold change) ribose ([3]; metabolite ribose): 0.0000
Log2(fold change) ribose-phosphate ([3]; metabolite ribose-phosphate): -0.5600
Log2(fold change) ribulose-5-phosphate ([3]; metabolite ribulose-5-phosphate): 0.0000
Log2(fold change) serine ([3]; metabolite serine): 0.0000
Log2(fold change) sn-glycerol-3-phosphate ([3]; metabolite sn-glycerol-3-phosphate): 0.6100
Log2(fold change) succinate/Methylmalonic acid ([3]; metabolite succinate/Methylmalonic acid): 0.1400
Log2(fold change) succinyl-CoA/methylmalonyl-CoA ([3]; metabolite succinyl-CoA/methylmalonyl-CoA): 0.0000
Log2(fold change) taurine ([3]; metabolite taurine): 0.0000
Log2(fold change) thiamine ([3]; metabolite thiamine): 0.0000
Log2(fold change) threonine/homoserine ([3]; metabolite threonine/homoserine): 0.0000
Log2(fold change) thymidine ([3]; metabolite thymidine): 0.7900
Log2(fold changes) thymine ([3]; metabolite thymine, log2 fold change): -0.5500
Log2(fold changes) trehalose-6-Phosphate ([3]; metabolite trehalose-6-Phosphate, log2 fold change): 0.0000
Log2(fold changes) tryptophan ([3]; metabolite tryptophan, log2 fold change): 0.0000
Log2(fold changes) tyrosine ([3]; metabolite tyrosine, log2 fold change): 0.0000
Log2(fold changes) uridine ([3]; metabolite uridine, log2 fold change): -0.4400
levels of cAMP [4]: decreased
levels of the deoxyribonucleotides dAMP and dTMP [4]: increased
nucleoside di- and tri-phosphate levels (GDP, UDP, GTP, dATP, dGTP/ATP, dUTP) [4]: decreased
peptide levels (hemoglobin catabolism signature) [4]: decreased peptide levels
